# Patent US10590113B2, “6-hydroxy-4-oxo-1,4-dihydropyrimidine-5-carboxamides as APJ agonists” (priority 2016, dated 2020)
# Target: T1, human APJ receptor (Homo sapiens, UniProt P35414)
# T1 construct: expressed in transfected cells; host or cells: HEK293
# T1 sequence (P35414 1-380): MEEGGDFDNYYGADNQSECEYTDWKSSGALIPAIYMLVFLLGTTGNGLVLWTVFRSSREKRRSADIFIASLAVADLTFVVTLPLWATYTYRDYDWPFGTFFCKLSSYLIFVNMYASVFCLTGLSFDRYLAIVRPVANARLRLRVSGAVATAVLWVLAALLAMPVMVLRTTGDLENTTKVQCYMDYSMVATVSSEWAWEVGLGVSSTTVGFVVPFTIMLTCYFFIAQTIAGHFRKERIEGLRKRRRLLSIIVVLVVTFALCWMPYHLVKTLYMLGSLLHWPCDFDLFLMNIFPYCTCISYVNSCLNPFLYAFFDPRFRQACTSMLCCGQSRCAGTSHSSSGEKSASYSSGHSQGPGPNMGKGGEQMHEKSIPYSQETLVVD
# Assay: Intracellular cAMP Accumulation Assay (APJ hcAMP, HTRF)
# Assay type: cell-based
# Settings: not given
# Protocol: Intracellular cAMP Accumulation Assay
# HEK293 cells stably expressing human APJ receptor were used to assess the activity of compounds. Cultured cells were detached and resuspended in the cAMP
# Homogeneous Time-Resolved Fluorescence (HTRF) assay buffer (Cisbio cat; #62AM4PEJ). The assay was performed in 384-well assay plates (Perkin-Elmer; cat #6008289) according to assay protocol provided by the manufacturer. Serial dilutions of a compound together with assay buffer containing […] IBMX and 2 μM forskolin were added to each well containing 5,000 cells and incubated for 30 minutes at room temperature. Subsequently, cAMP D2 reagent was added in the lysis buffer followed by the EuK antibody (Cisbio; cat #62AM4PEJ) and incubated for 60 min. The fluorescence emission ratio was measured using fluorometer. The intracellular cAMP concentrations (compound-stimulated inhibition of forskolin-mediated cAMP production) were calculated by extrapolation from a standard curve using known cAMP concentrations. The EC50 values were obtained by fitting the data to a sigmoidal concentration-response curve with variable slope.
# The EC50 value of each compound is presented at the end of the example description.
# The biological activity of the exemplified compounds of this invention determined by the assay described above is shown at the end of each example.
row,EC50 [nM],SMILES
1,0.01 to 10,"C=CCCc1nc(=O)c(C(=O)N2CC[C@H](c3ccccc3)C2)c(O)n1-c1c(OC)cccc1OC [Example 27, (R)-2-(but-3-en-1-yl)-3-(2,6-dimethoxyphenyl)-6-hydroxy-5-(3-phenylpyrrolidine-1-carbonyl)pyrimidin-4(3H)-one]"

# Same assay, conditions: human APJ, cAMP accumulation; potency range class; read-out: hAPJ cAMP EC50 Potency range
row,EC50 [nM],SMILES
1,0.01 to 10,"COc1cccc(OC)c1-n1c(-c2cncc(Cl)c2)nc(=O)c(C(=O)N2CCC(c3ccccc3C#N)C2)c1O (single isomer, unassigned) [Example 243, 2-{1-[2-(5-chloropyridin-3-yl)-1-(2,6-dimethoxyphenyl)-6-hydroxy-4-oxo-1,4-dihydropyrimidine-5-carbonyl]pyrrolidin-3-yl}benzonitrile]"
2,0.01 to 10,"CCc1cccc(CC)c1-n1c(-c2nc(C)cs2)nc(=O)c(C(=O)N2CCC(c3ncc(Cl)cc3F)C2)c1O (single isomer, unassigned) [Example 312, 5-[3-(5-chloro-3-fluoropyridin-2-yl)pyrrolidine-1-carbonyl]-1-(2,6-diethylphenyl)-6-hydroxy-2-(4-methyl-1,3-thiazol-2-yl)-1,4-dihydropyrimidin-4-one]"
3,0.01 to 10,"COc1cccc(-c2nc(=O)c(C(=O)N3CCC(c4ncccc4F)C3)c(O)n2-c2c(OC)cccc2OC)c1 (single isomer, unassigned) [Example 245, 1-(2,6-dimethoxyphenyl)-5-[3-(3-fluoropyridin-2-yl)pyrrolidine-1-carbonyl]-6-hydroxy-2-(3-methoxyphenyl)-1,4-dihydropyrimidin-4-one]"
4,0.01 to 10,"CCc1cccc(CC)c1-n1c(-c2ccn(CC)n2)nc(=O)c(C(=O)N2CCC(c3ncc(Cl)cc3F)C2)c1O (single isomer, unassigned) [Example 311, 5-[3-(5-chloro-3-fluoropyridin-2-yl)pyrrolidine-1-carbonyl]-1-(2,6-diethylphenyl)-2-(1-ethyl-1H-pyrazol-3-yl)-6-hydroxy-1,4-dihydropyrimidin-4-one]"
5,0.01 to 10,"CCCCc1nc(=O)c(C(=O)N2CCC(c3ncc(F)cc3F)C2)c(O)n1-c1c(OC)cccc1OC (single isomer, unassigned) [Example 359, 2-butyl-5-(3-(3,5-difluoropyridin-2-yl)pyrrolidine-1-carbonyl)-1-(2,6-dimethoxyphenyl)-6-hydroxypyrimidin-4(1H)-one]"
6,0.01 to 10,"COc1cccc(OC)c1-n1c(-c2ccc(Cl)cn2)nc(=O)c(C(=O)N2CCC(c3ccc(F)cc3F)C2)c1O (single isomer, unassigned) [Example 287, 2-(5-chloropyridin-2-yl)-5-[3-(2,4-difluorophenyl)pyrrolidine-1-carbonyl]-1-(2,6-dimethoxyphenyl)-6-hydroxy-1,4-dihydropyrimidin-4-one]"
7,0.01 to 10,"COc1cccc(OC)c1-n1c(-c2ccc(F)c(C)c2)nc(=O)c(C(=O)N2CCC(c3ncc(F)cc3F)C2)c1O (single isomer, unassigned) [Example 256, 5-[3-(3,5-difluoropyridin-2-yl)pyrrolidine-1-carbonyl]-1-(2,6-dimethoxyphenyl)-2-(4-fluoro-3-methylphenyl)-6-hydroxy-1,4-dihydropyrimidin-4-one]"
8,0.01 to 10,"CCCCc1nc(=O)c(C(=O)N2CCC(c3ncc(F)cc3F)C2)c(O)n1[C@@H](COC)c1ccccc1 (stereo partly drawn) [Example 349, 2-butyl-5-[3-(3,5-difluoropyridin-2-yl)pyrrolidine-1-carbonyl]-6-hydroxy-3-[(1R)-2-methoxy-1-phenylethyl]-3,4-dihydropyrimidin-4-one]"

# Same assay, conditions: human APJ, intracellular cAMP accumulation; read-out: hAPJ cAMP EC50 Potency range
row,EC50 [nM],SMILES
1,10 to 100,"CCCCc1nc(=O)c(C(=O)N2CC[C@@H](c3ccccc3)C2)c(O)n1[C@@H](COC)c1ccccc1 [Example 127, 2-butyl-6-hydroxy-3-[(1R)-2-methoxy-1-phenylethyl]-5-[(3S)-3-phenylpyrrolidine-1-carbonyl]-3,4-dihydropyrimidin-4-one]"
2,0.01 to 10,"CC[C@@H](c1cc(F)cc(F)c1)n1c(-c2ccn(C)n2)nc(=O)c(C(=O)N2CCC(c3ccccc3OC)C2)c1O (single isomer, unassigned) [Example 195]"
3,0.01 to 10,"COc1cccc(OC)c1-n1c(COC2CC2)nc(=O)c(C(=O)N2CCC(c3ccccc3F)C2)c1O (single isomer, unassigned) [Example 13, 2-(cyclopropoxymethyl)-1-(2,6-dimethoxyphenyl)-5-(3-(2-fluorophenyl)pyrrolidine-1-carbonyl)-6-hydroxy-pyrimidin-4(1H)-one]"
4,0.01 to 10,"CC[C@@H](c1cc(F)cc(F)c1)n1c(-c2ccn(CC)n2)nc(=O)c(C(=O)N2CCC(c3ncccc3F)C2)c1O (single isomer, unassigned) [Example 186]"
5,10 to 100,"CCCCc1nc(=O)c(C(=O)N2CC[C@H](c3ccccc3)C2)c(O)n1C(C)C [Example 150, 2-butyl-6-hydroxy-5-[(3R)-3-phenylpyrrolidine-1-carbonyl]-3-(propan-2-yl)-3,4-dihydropyrimidin-4-one]"
6,0.01 to 10,"COc1cccc(OC)c1-n1c(COC(C)C)nc(=O)c(C(=O)N2CCC(c3c(F)cccc3F)C2)c1O (single isomer, unassigned) [Example 164, 5-[3-(2,6-difluorophenyl)pyrrolidine-1-carbonyl]-1-(2,6-dimethoxyphenyl)-6-hydroxy-2-[(propan-2-yloxy)methyl]-1,4-dihydropyrimidin-4-one]"
7,0.01 to 10,"CC[C@@H](c1cc(F)cc(F)c1)n1c(-c2cnn(C)c2)nc(=O)c(C(=O)N2CCC(c3ccc(Cl)cn3)C2)c1O (single isomer, unassigned) [Example 183]"
8,10 to 100,"CCCCc1nc(=O)c(C(=O)N2CC[C@@H](c3ccccc3)C2)c(O)n1[C@@H](CCC)c1ccccc1 [Example 153, 2-butyl-6-hydroxy-3-[(1S)-1-phenylbutyl]-5-[(3S)-3-phenylpyrrolidine-1-carbonyl]-3,4-dihydropyrimidin-4-one]"
9,0.01 to 10,"CC[C@@H](c1cc(F)cc(F)c1)n1c(-c2cnn(C)c2)nc(=O)c(C(=O)N2CCC(c3ccc(F)cn3)C2)c1O (single isomer, unassigned) [Example 220]"
10,10 to 100,"CCCCc1nc(=O)c(C(=O)N2CC[C@H](c3ccccc3)C2)c(O)n1[C@@H](C)c1cccc(C#N)c1 [Example 138, 3-[(1S)-1-{2-butyl-4-hydroxy-6-oxo-5-[(3R)-3-phenylpyrrolidine-1-carbonyl]-1,6-dihydropyrimidin-1-yl}ethyl]benzonitrile]"
11,0.01 to 10,"COc1cccc(OC)c1-n1c(CCC(C)C)nc(=O)c(C(=O)N2CC[C@H](c3ccccc3)C2)c1O [Example 14, (R)-1-(2,6-dimethoxyphenyl)-6-hydroxy-2-isopentyl-5-(3-phenylpyrrolidine-1-carbonyl)pyrimidin-4(1H)-one]"

# Same assay, conditions: read-out: hAPJ cAMP EC50 Potency range
row,EC50 [nM],SMILES
1,0.01 to 10,"CCCCc1nc(=O)c(C(=O)N2CCC(Cc3ccc(C(F)(F)F)cc3)CC2)c(O)n1-c1c(OC)cccc1OC [Example 380, 2-butyl-1-(2,6-dimethoxyphenyl)-6-hydroxy-5-(4-(4-(trifluoromethyl)benzyl)piperidine-1-carbonyl)pyrimidin-4(1H)-one]"
2,10 to 100,"CCCCc1nc(=O)c(C(=O)N2CCC(Oc3ccc(C(C)(C)C)cc3)CC2)c(O)n1-c1c(OC)cccc1OC [Example 381, 2-butyl-5-(4-(4-(tert-butyl)phenoxy)piperidine-1-carbonyl)-1-(2,6-dimethoxyphenyl)-6-hydroxypyrimidin-4(1H)-one]"
